Measured values reported in patent US4226879A, “Antibiotic composition” (Kyowa Hakko Kogyo Kabushiki Kaisha, priority 1976, dated 1980).
Converted amounts (≈) assume the structure as drawn.

Experiments:
Sclerotinia cinerea = assay: MIC, agar dilution method; assay type: cell-based; conditions: pH 6.8, 27° C. 72 hours
Aspergillus niger = assay: MIC, agar dilution method; assay type: cell-based; conditions: pH 6.8, 27° C. 72 hours
B. subtilis ATCC 6633 = assay: MIC, agar dilution method; assay type: cell-based; conditions: Bacillus subtilis, ATCC6633; pH 7.0, 37° C., 18 hours
Eimeria brunetti = assay: anticoccidial activity; assay type: in vivo
B. anthracis = assay: microbe, parasite or virus in culture; assay type: cell-based; conditions: Bacillus anthracis, 18 h, pH 7
[1] = test system: Aerobacter aerogenes IAM 1183; assay: MIC, agar dilution method; assay type: cell-based; conditions: Klebsiella aerogenes, IAM1183; pH 7.0, 37° C., 18 hours
Eimeria acervulina = assay: anticoccidial activity; assay type: in vivo
Nocardia asteroides = assay: MIC, agar dilution method; assay type: cell-based
Alternaria kikuchiana = assay: MIC, agar dilution method; assay type: cell-based; conditions: pH 6.8, 27° C. 72 hours
Eimeria maxima = assay: anticoccidial activity; assay type: in vivo
Cryptococcus neoformans = assay: MIC, agar dilution method; assay type: cell-based; conditions: pH 6.8, 27° C. 72 hours
Eimeria necatrix = assay: anticoccidial activity; assay type: in vivo
B. agri = assay: MIC, agar dilution method; assay type: cell-based; conditions: pH 7.0, 37° C., 18 hours
Experimental: (§1) Table 1 indicates the antibacterial and antifungal activity of AM-1042 as minimum inhibitory concentration (mcg/ml) determined by the agar dilution method.
(§2) *Peptone 0.5%; meat extract 0.5%; agar 1.2% (pH 7.0), 37° C., 18

Shigella sonnei E-33 = assay: MIC, agar dilution method; assay type: cell-based; conditions: E33, pH 7.0, 37° C., 18 hours
Experimental: as §1, §2

E. coli B = assay: MIC, agar dilution method; assay type: cell-based; conditions: Escherichia coli; pH 7.0, 37° C., 18 hours
Experimental: as §1, §2

S. albus = assay: MIC, agar dilution method; assay type: cell-based; conditions: pH 7.0, 37° C., 18 hours
Experimental: as §1, §2

Staphylococcus aureus = assay: antibacterial activity; assay type: cell-based
[2] = test system: Trichophyton mentagrophytes; assay: MIC, agar dilution method; assay type: cell-based; conditions: pH 6.8, 27° C. 72 hours
[3] = test system: S. aureus FS-1277 (penicillin-resistant); assay: MIC, agar dilution method; assay type: cell-based; conditions: Staphylococcus aureus; pH 7.0, 37° C., 18 hours
Piricularia oryzae = assay: microbe, parasite or virus in culture; assay type: cell-based; conditions: 72 h, pH 6.8
[4] = test system: Proteus vulgaris IFO 3163; assay: MIC, agar dilution method; assay type: cell-based; conditions: IFO3163, pH 7.0, 37° C., 18 hours
[5] = test system: Pseudomonas aerginosa P-3; assay: MIC, agar dilution method; assay type: cell-based; conditions: P3, pH 7.0, 37° C., 18 hours
Eimeria tenella = assay: anticoccidial activity; assay type: in vivo

O=C(/C=C/C=C/C=C/C1CCCCC1)NC1=CC(O)(/C=C/C=C/C=C/C(=O)NC2=C(O)CCC2=O)C2OC2C1=O (stereo not shown) [AM-1042]
MIC (Sclerotinia cinerea): 100 µg/mL (≈ 183 µM) | MIC (Aspergillus niger): > 100 µg/mL | MIC (B. subtilis ATCC 6633): 6.2 µg/mL (≈ 11.3 µM) | activity upon coccidiosis (Eimeria brunetti): significantly active | MIC (B. anthracis): 12.5 µg/mL (≈ 22.9 µM) | MIC [1]: 100 µg/mL (≈ 183 µM) | activity upon coccidiosis (Eimeria acervulina): significantly active | activity upon Nocarida asteroides (Nocardia asteroides): active | MIC (Nocardia asteroides; Nocardia asteroides, pH 7.0, 37° C., 18 hours): 1.56 µg/mL (≈ 2.85 µM) | MIC (Alternaria kikuchiana): > 100 µg/mL | activity upon coccidiosis (Eimeria maxima): significantly active | MIC (Cryptococcus neoformans): > 100 µg/mL | activity upon coccidiosis (Eimeria necatrix): significantly active | MIC (B. agri): 12.5 µg/mL (≈ 22.9 µM) | MIC (Shigella sonnei E-33): > 100 µg/mL | MIC (E. coli B): > 100 µg/mL | MIC (S. albus): 12.5 µg/mL (≈ 22.9 µM) | activity upon Staphylococcus aureus (Staphylococcus aureus): active | MIC [2]: 25 µg/mL (≈ 45.7 µM) | MIC [3]: 6.2 µg/mL (≈ 11.3 µM) | MIC (Piricularia oryzae): 100 µg/mL (≈ 183 µM) | MIC [4]: > 100 µg/mL | MIC [5]: > 100 µg/mL | activity upon coccidiosis (Eimeria tenella; Eimeria tenella, also when resistant to amprolium hydrochloride, clopidol, robenidine hydrochloride): significantly active | reducing mortality of chicks (Eimeria tenella; chicks infected with Eimeria tenella): effective in reducing mortality of chicks
